# Measured values published in US7700300B2, “Screening of compounds for GAT2 transporter activity” (XenoPort, Inc., priority 2005, dated 2010).
# Columns and labels:
# hGAT2 = target: T1, hGAT2 (Homo sapiens, UniProt Q9NSD5); assay: hGAT2 competition uptake assay with 3H-GABA in HEK-TREx-hGAT2 cells; assay type: cell-based
# T1 construct: expressed in transfected cells; host or cells: HEK-TREx cells (HEK-TREx-GAT2 inducible cell line)
# T1 sequence (Q9NSD5 1-602): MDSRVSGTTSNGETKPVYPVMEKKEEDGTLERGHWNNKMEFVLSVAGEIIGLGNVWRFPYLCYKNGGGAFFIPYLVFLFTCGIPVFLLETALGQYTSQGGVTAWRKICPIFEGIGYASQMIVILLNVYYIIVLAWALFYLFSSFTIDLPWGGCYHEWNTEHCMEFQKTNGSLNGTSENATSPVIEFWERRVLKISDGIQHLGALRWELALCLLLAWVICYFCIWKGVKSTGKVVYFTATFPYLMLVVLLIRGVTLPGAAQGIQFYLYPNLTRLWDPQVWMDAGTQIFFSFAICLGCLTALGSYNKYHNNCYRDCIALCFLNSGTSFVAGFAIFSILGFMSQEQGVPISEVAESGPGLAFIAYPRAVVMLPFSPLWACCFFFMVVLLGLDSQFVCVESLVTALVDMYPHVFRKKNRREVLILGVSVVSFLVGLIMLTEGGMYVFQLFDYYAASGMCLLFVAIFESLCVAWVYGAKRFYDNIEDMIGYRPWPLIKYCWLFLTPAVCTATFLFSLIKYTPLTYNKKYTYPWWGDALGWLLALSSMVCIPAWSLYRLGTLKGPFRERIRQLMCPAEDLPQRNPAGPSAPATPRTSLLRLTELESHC
# Description: A modified competition uptake assay can be developed to determine the ability of a test compound(s) to inhibit the uptake of radiolabeled substrates into HEK-TREx-hGAT2 cells induced to over-express hGAT2. The results can be stated as affinities (IC50).
# The competition uptake assay is prepared as follows: Compounds are prepared for assay by diluting a 100 mM stock concentration (in DMSO) to the appropriate working concentration. Typically, seven-point dose response curves are prepared starting at a final assay concentration of 1 mM and carrying out three-fold dilutions. […]
# Scintillation fluid (200 μl) (Optiphase Supermix (Perkin Elmer) is added to each well, and the plate is covered with a 96-well adhesive plate cover and placed on a shaker for 10 minutes. The plates are counted on a 96-well plate scintillation counter for 60 sec/well. The data are analyzed using a sigmoidal dose response curve-fitting program (Prism, GraphPad, Inc, San Diego, Calif.; equation: one-site competition).
# FIG. 2 depicts the results of a competition experiment using HEK-TREx-GAT2 cells. ^3H-GABA was used as the substrate and unlabeled GABA was used as the competitor. […] Non-specific uptake was determined by measuring the uptake into cells not induced to express the transporter (“no tet”). […]
# PgP = target: T2, PgP (Homo sapiens, UniProt P08183); assay: Transwell monolayer efflux assay in MDCK cells with TREx-PgP; assay type: cell-based; conditions: 2.5 nM 3H-vinblastine, 250 μM verapamil
# T2 construct: expressed in transfected cells; host or cells: MDCK cells
# Description: Transwell monolayer efflux assays can be performed by transfecting MDCK cells with the tetracycline-inducible TREx-PgP expression vector. The cells optionally can be transfected with a nucleic acid encoding the transporter of interest. The transfected cells are seeded on polycarbonate filter membranes in transwell dishes and grown for 3-5 days, yielding a polarized monolayer with tight junctions between cells.
# T2 sequence (P08183 whole entry): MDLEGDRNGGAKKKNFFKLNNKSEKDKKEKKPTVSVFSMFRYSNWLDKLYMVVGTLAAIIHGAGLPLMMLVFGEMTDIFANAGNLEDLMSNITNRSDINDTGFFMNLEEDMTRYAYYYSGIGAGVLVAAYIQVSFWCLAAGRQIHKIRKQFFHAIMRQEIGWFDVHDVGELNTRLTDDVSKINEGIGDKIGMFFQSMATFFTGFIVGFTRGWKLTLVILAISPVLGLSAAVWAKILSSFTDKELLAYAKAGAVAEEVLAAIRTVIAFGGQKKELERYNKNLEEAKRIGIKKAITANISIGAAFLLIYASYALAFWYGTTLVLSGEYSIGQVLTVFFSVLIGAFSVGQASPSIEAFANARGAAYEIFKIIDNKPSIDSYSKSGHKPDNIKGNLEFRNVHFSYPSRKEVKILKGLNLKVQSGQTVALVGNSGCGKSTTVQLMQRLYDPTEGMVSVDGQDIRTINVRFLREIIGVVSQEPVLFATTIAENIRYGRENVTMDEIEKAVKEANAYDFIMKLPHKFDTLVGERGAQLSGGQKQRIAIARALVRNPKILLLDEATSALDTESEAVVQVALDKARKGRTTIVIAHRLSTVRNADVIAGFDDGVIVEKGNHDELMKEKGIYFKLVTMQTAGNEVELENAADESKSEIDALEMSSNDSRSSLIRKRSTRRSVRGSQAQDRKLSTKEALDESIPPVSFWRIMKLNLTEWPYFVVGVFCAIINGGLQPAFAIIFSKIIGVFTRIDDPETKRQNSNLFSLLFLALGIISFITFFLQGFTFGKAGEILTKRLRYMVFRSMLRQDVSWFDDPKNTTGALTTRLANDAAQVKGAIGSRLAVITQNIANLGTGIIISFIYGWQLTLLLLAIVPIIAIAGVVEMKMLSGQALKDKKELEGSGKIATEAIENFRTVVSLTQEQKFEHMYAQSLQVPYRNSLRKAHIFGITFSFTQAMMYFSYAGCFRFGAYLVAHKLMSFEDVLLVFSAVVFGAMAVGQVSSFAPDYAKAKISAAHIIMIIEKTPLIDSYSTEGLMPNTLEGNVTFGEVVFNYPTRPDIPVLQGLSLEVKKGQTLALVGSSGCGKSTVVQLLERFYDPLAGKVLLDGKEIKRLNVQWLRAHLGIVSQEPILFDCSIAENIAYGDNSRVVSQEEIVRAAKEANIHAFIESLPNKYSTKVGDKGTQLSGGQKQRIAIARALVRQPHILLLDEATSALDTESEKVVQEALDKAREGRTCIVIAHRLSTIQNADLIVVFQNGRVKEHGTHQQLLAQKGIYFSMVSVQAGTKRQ
SMILES,"uptake of labeled GABA as concentration of unlabeled GABA increased (hGAT2; HEK-TREx-GAT2 cells induced to express GAT2, FIG. 2)","IC50 (hGAT2; HEK-TREx-GAT2 cells induced to express hGAT2, 3H-GABA as substrate)",Apical to basolateral transport in the presence of verapamil (PgP),Basolateral to apical transport in the presence of verapamil (PgP)
"NCCCC(=O)O [GABA, gamma-aminobutyric acid]",decreased,13 µM,–,–
"CC[C@]1(O)C[C@@H]2CN(CCc3c([nH]c4ccccc34)[C@@](C(=O)OC)(c3cc4c(cc3OC)N(C)[C@H]3[C@@](O)(C(=O)OC)[C@H](OC(C)=O)[C@]5(CC)C=CCN6CC[C@]43[C@@H]65)C2)C1 [^3H-vinblastine, vinblastine]",–,–,strongly increased,strongly decreased
